Data taken from ChEMBL document CHEMBL3045017, “Responses of Spodoptera littoralis larvae to Tunisian plant extracts and to neo-clerodane diterpenoids isolated from Ajuga pseudoiva leaves” (2000).

Key:
Format in all cases: functional
Spodoptera littoralis [1] = experiment: Antifeedant activity against final stage larvae of Spodoptera littoralis at 1 mg/l after 8 to 24 hr
Spodoptera littoralis [2] = experiment: Antifeedant activity against final stage larvae of Spodoptera littoralis at 0.1 mg/l after 8 to 24 hr
Spodoptera littoralis [3] = experiment: Antifeedant activity against final stage larvae of Spodoptera littoralis at 10 mg/l after 8 to 24 hr
Spodoptera littoralis [4] = experiment: Antifeedant activity against final stage larvae of Spodoptera littoralis at 100 mg/l after 8 to 24 hr

Row | SMILES | AFI (Spodoptera littoralis [1]) | AFI (Spodoptera littoralis [2]) | AFI (Spodoptera littoralis [3]) | AFI (Spodoptera littoralis [4])
1 | CC[C@H](C)C(=O)O[C@H]1[C@H](O)C[C@@H]2[C@@](C)([C@@H]3C[C@H]4CCO[C@H]4O3)[C@H](C)C[C@H](OC(C)=O)[C@@]2(COC(C)=O)[C@@]12CO2 [14,15-DIHYDROAJUGAPITIN] | 92.6% | 65.9% | 100% | 100%
2 | CO[C@H]1C[C@@H]2C[C@@H]([C@@]3(C)[C@H](C)C[C@H](OC(C)=O)[C@]4(COC(C)=O)[C@@H]3C[C@@H](O)[C@H](OC(=O)C(C)C)[C@]43CO3)O[C@@H]2O1 [HATIVENE A] | 63.3% | 37.3% | 100% | 100%
3 | CO[C@@H]1C[C@@H]2C[C@@H]([C@@]3(C)[C@H](C)C[C@H](OC(C)=O)[C@]4(COC(C)=O)[C@@H]3C[C@@H](O)[C@H](OC(=O)C(C)C)[C@]43CO3)O[C@@H]2O1 [HATIVENE B] | 69% | 41.2% | 100% | 100%
4 | CO[C@@H]1C[C@@H]2C[C@@H]([C@@]3(C)[C@H](C)C[C@H](OC(C)=O)[C@]4(COC(C)=O)[C@@H]3C[C@H](O)[C@H](OC(=O)C(C)C)[C@]43CO3)O[C@@H]2O1 [HATIVENE C] | 63.3% | 42.7% | 100% | 100%
5 | CC[C@@H](C)C(=O)O[C@H]1[C@H](O)C[C@@H]2[C@@](C)([C@@H]3C[C@H]4C[C@@H](OC)O[C@H]4O3)[C@H](C)C[C@H](OC(C)=O)[C@@]2(COC(C)=O)[C@@]12CO2 [LUPULIN A] | 74.5% | 45% | 100% | 100%
